The values below come from patent US6635662B2, “Radicicol derivatives” (Kyowa Hakko Kogyo Co., Ltd., priority 1996, dated 2003).

Molecules are shown by their SMILES. pIC50: −log10 of the molar value.

Assay [1] concerns rat normal fibroblast cell line 3Y1-B. Kind of assay: Growth inhibition test (MTT) on 3Y1-B. Type of assay: cell-based. As to conditions: 3Y1-B cells, 72 hours. Here is the method: (§1) The cells were inoculated into a 96 well microplate (# 167008, manufactured by Nunc) in an amount of 1,000 cells per well and pre-cultured at 37° C. for 24 hours in a 5% carbon dioxide gas incubator using Dulbacco's modified Eagle's medium (DMEM) which had been supplemented with 10% fetal calf serum (FCS). Next, a DMSO solution of each test compound which had been adjusted to 10 mM was serially diluted with the culturing medium and add to the wells in 50 μl portions. Thereafter, the culturing was continued at 37° C. for 72 hours in the 5% carbon dioxide gas incubator. Five hours before completion of the culturing, 3-(4,5-dimethylthiazo-2-yl)-2,5-diphenyltetrazolium bromide (manufactured by Sigma, hereinafter referred to as “MTT”) which had been dissolved in the culturing medium to a final concentration of […] was dispensed into the wells in 50 μl portions. After completion of the culturing, DMSO was dispensed into the wells in […] portions, and the plate was vigorously stirred using a plate mixer to dissolve MTT-formazan crystals completely. Thereafter, absorbance at 550 nm was measured using a microplate reader MTP-32 (manufactured by Corona Denki). The cell growth inhibition activity was expressed by 50% inhibition concentration (IC50).

In assay [2] the test system is v-src oncogene transformed cell line SR-3Y1. Kind of assay: Growth inhibition test (MTT) on SR-3Y1. Type of assay: cell-based. As to conditions: Rattus norvegicus, SR3Y1, SR-3Y1 cells, 72 hours. Here is the method:
as §1

The next assay relates to Raf-1 protein. Kind of assay: Effect of decreasing intracellular Raf-1 protein quantity in KNRK 5.2 cells. Type of assay: cell-based, rat. The following applies: 40 hours, Raf-1 protein/total Erk2 protein ratio halved, read-out: Raf-1 protein quantity decrease: IC50. As to the method: (§2) Activated K-Ras gene-introduced rat kidney epithelial cell line KNRK 5.2 was cultured at 37° C. for 40 hours in an atmosphere of 5% carbon dioxide gas using Dulbecco's modified Eagle's medium (DMEM) which was supplemented with 10% fetal calf serum (FCS) and to which was added each radicicol derivative at respective test concentration. The resulting cells were lysed for 30 minutes at 4° C. in a cooled buffer for lysis use [50 mM HEPES NaOH, pH 7.4, 250 mM sodium chloride (NaCl), 1 mM ethylenediaminetetraacetic acid (EDTA), 1% Nonidet P-40 (NP40), 1 mM dithiothreitol (DTT), 1 mM phenylmethylsulfonyl fluoride (PMSF), 5 μg/ml leupeptin, 2 mM sodium orthovanadate (Na3VO4), 1 mM sodium fluoride (NaF), 10 mM β-glycerophosphate] and then centrifuged at 30,000 G for 10 minutes. The protein content of the thus prepared supernatant fluids was measured to prepare samples having the same protein quantity for each lane, and then separation of proteins was carried out by SDS-PAGE. The thus separated protein samples were transferred on a polyvinylidene difluoride (PVDF) membrane, and then anti-phosphorylation MAPK antibody (anti-phospho MAPK, manufactured by New England Biolabs), anti-Erk2 antibody (anti-Erk2, manufactured by Upstate Biotechnology) and anti-Raf-1 antibody (anti-Raf-1 (C-12), manufactured by Santa Cruz Biotechnology) were added thereto as primary antibodies and allowed to react with the proteins on the membrane. Thereafter, a horseradish peroxidase-labeled secondary antibody (anti-rabbit Ig antibody or anti-mouse Ig antibody, manufactured by Amersham) capable of reacting with respective primary antibodies was added thereto as the secondary antibody to carry out the reaction. Detection was carried out using ECL reagent (manufactured by Amersham), and the amount of phosphorylated Erk2 protein, total Erk2 protein and Raf-1 protein was determined by carrying out density scanning of the bands generated on the X-ray film. The Erk2 phosphorylation inhibition activity of radicicol derivatives is determined by calculating the ratio of phosphorylated Erk2 protein (phosphorylated Erk2 protein/total Erk2 protein) based on the results prepared from the samples of respective drug concentrations, which is expressed as the concentration of each derivative (IC50) by which the ratio becomes half in comparison with the case in which the drug is not added.

The test system of a further assay is Erk2 phosphorylation. Description: Erk2 phosphorylation inhibition activity in KNRK 5.2 cells. Type of assay: cell-based. The following applies: Rattus norvegicus, 40 hours, phosphorylated Erk2/total Erk2 ratio halved. Here is the method:
as §2

Assay [3] relates to human breast cancer MX-1 solid tumor. Description: Antitumor test on nude mouse-transplanted human breast cancer MX-1 solid tumor. As to conditions: tumor volume ratio, 100 mg/kg per day i.v. once a day for 5 days, measured day 12 after administration. Type of assay: in vivo. Here is the method: From a tumor lump of a human breast cancer cell line MX-1 subcultured in nude mice (BALB/c nu/nu mice: CLEA Japan), a portion showing good growth was selected and cut into a 2 mm square fragment which was then transplanted under the abdominal side skin of each male nude mouse of 7 to 9 weeks of age using a trocar. The tumor size was measured on the 13th day after the tumor transplantation to select properly growing tumors having a tumor volume of 100 to 300 mm^3 (calculated by a calculation formula of “major axis×minor axis^2×½”), the mice were optionally grouped into 5 animals per group, and then each test compound which had been dissolved in a 7.5% cremohor EL (manufactured by Sigma)/5% dimethylacetamide (DMA)/87.5% physiological saline solution was administered to the mice by intravenous injection at a dosage of 0.05 ml (100 mg/kg) per day, once a day for 5 days. The antitumor activity of each test compound was expressed by a ratio (T/C) of the tumor volume (T) in the test drug-administered group to the tumor volume (C) in the control group on the 12th or 14th day after administration of the test compound.

For assay [4], the system named is intracellular tyrosine kinase. Kind of assay: Inhibition test of intracellular tyrosine kinase (tyrosine-phosphorylated protein, Western blot). Type of assay: cell-based. The following applies: Rattus norvegicus, SR3Y1; SR-3Y1 cells, 15 hours culture, tyrosine-phosphorylated protein reduced to half vs control; read-out: Inhibitory activity of intracellular tyrosine kinase IC50. Here is the method: SR-3Y1 cells were cultured at 37° C. for 15 hours in an atmosphere of 5% carbon dioxide, using Dulbecco's modified Eagle's medium (DMEM) containing 10% fetal calf serum (FCS), to which each radicicol derivative to be tested had been added in varied concentration. The thus cultured cells were lysed at 4° C. for 20 minutes in a cooled buffer for lysis use (50 mM Tris HCl, pH 7.5, 150 mM sodium chloride (NaCl), 1% Triton X-100, 0.1% sodium dodecyl sulfate (SDS), 1% sodium deoxycholate, 2 mM ethylenediaminetetraacetic acid (EDTA), 1 mM phenylmethanesulfonyl fluoride (PMSF), 20 μM leupeptin, 0.15 unit/ml aprotinin, 1 mM sodium orthovanadate (Na3VO4) and then centrifuged at 20,000 G for 30 minutes. After measuring protein concentration in the resulting supernatant fluid, samples were adjusted to the same protein quantity per lane to carry out separation of protein by SDS-PAGE. […] Detection was carried out using ECL reagent (Amersham Co.), and the amount of tyrosine-phosphorylated protein was determined by scanning the density of bands prepared on an X-ray film. […]
(A western blot detects proteins with antibodies after separation by electrophoresis.)

As to `CC1CC2OC2C=CC=CC(=NOCc2ccccc2S(=O)(=O)N(C)C)Cc2c(Cl)c(O)cc(O)c2C(=O)O1` (stereo not shown) [Compound 50], the pIC50 in assay [1] was 6.92; in assay [2], 7.68; with Raf-1 protein, 6.47; in the assay on Erk2 phosphorylation it was 6.46.

As for `CC1CC2OC2C=CC=CC(=NOCc2cccnc2)Cc2c(Cl)c(O)cc(O)c2C(=O)O1` (stereo not shown) [Compound 53], the pIC50 was 8.10 in assay [1], over 8.40 in assay [2], 6.42 with Raf-1 protein and 7.15 in the assay on Erk2 phosphorylation. Also, the “T/C (%)” value in assay [3] is on record as 46%.

`CC1CC2OC2C=CC=CC(=NOCCCCN2CCOCC2)Cc2c(Cl)c(O)cc(O)c2C(=O)O1` (stereo not shown) [Compound 64]: the pIC50 in the assay on Raf-1 protein is 6.72; in the assay on Erk2 phosphorylation, 6.96.

As for `CC1CC2OC2C=CC=CC(=NOCCN2CCCC2=O)Cc2c(Cl)c(O)cc(O)c2C(=O)O1` (stereo not shown) [Compound 69], the pIC50 is 8.10 in assay [1], 8.40 in assay [2], 6.92 in the assay with Raf-1 protein and 7.22 in the assay with Erk2 phosphorylation. Also, in assay [3], the “T/C (%)” value is listed as 4%.

On to `CCOC(=O)ON=C1/C=C/C=C\C2OC2CC(C)OC(=O)c2c(O)cc(O)c(Cl)c2C1` (stereo not shown) [Compound 73], for which the pIC50 in assay [4] was 6.89.

`CNC(=O)ON=C1/C=C/C=C\C2OC2CC(C)OC(=O)c2c(O)cc(O)c(Cl)c2C1` (stereo not shown) [Compound 74]: the pIC50 in assay [1] was 7.14; in assay [2] it was 7.57.

For the compound `C[C@@H]1C[C@H]2O[C@@H]2/C=C\C=C\C(=O)Cc2c(Cl)c(O)cc(O)c2C(=O)O1` [Radicicol, radicicol], the pIC50 in assay [4] is 6.43; in assay [1], 6.11; in assay [2], 7.38.

As a reminder, the pIC50 is the negative decadic logarithm of the IC50, by convention in mol/L.
